Test results from patent publication US20260223838A1, “ANTIMICROBIAL MASTERBATCHES AND POWDERS COMPRISING A SYNERGISTIC BLEND OF COMPONENTS” (priority 2023, published 2026).

Test system: E. coli (ATCC 8739)
Assay: Zone of Inhibition (ZOI) of pressed powder pellets
Conditions: against E. coli after 24 h incubation at 37° C.
Procedure: Zone of Inhibition (ZOI). […] The cultures were streaked on Luria Agar (LB) plates and incubated overnight at 37° C. […] 50 μL of this stock suspension was spread homogeneously on a trypticase soy agar (TSA) plate (diameter 10 cm).

Molecule	diameter of the ZOI
Zinc borate	No ZOI
basic copper (II) carbonate [BCC]	12 mm
[O]=[Mo](=[O])=[O] [molybdenum oxide, molybdenum (VI) oxide]	19 mm
